For one assay, the system named is T2 cells. In words: chromium release assay with CTL 4.2, T2 target cells. In kind it is cell-based. The note with it: for % 51CR Release: T2 + peptide. The procedure: The CTL clone was obtained using T2 cells, in accordance with Houbiers et al., Eur. J. Immunol. 23: 2072 (1993), previously incorporated by reference in its entirety.
Once the CTL clone was isolated, it was used in a chromium release assay in accordance with Boon, et al., J. Exp. Med. 152: 1184 (1980) the disclosure of which is incorporated by reference in its entirety. In addition to T2, cell line SK23, which is an HLA-A2 presenting line, was tested. The results are presented below:
Effector Cell (E): CTL 4.2 Target (T): HLA-A2 cell plus SEQ ID NO: 4

In the next assay the target is T1, HLA-A2 molecules (Homo sapiens, UniProt P04439, D140Y/D185E/D98H/E176V/E277Q/G131W/G231S/I119V/I121R/I166T/I218V/L300P/L318F/N151K/N90K/P208A/P217A/Q86G/Q94H/R138H/R169H/T345S).
T1 construct: endogenous in cells; host or cells: 174 CEM.T2 (T2) cells
In words: HLA-A2 binding (stabilization) assay on T2 cells, mean fluorescence ratio. The settings on record: peptide 0.1 mM. The source says: To determine whether or not peptides bound to HLA-A2 molecules, cell line 174 CEM.T2 (hereafter “T2”) was used. This cell line is described by Cerundolo et al., Nature 345: 449-452 (1990), and Spies et al., Nature 348: 744-747 (1990), the disclosures of which are incorporated by reference. This is a cell line deficient in the pathway which supplies peptides to the endoplasmic reticulum, the site of assembly of MHC class I heterodimers. It can assemble MHC class-I molecules, but these are unstable, and, on cell lysis, dissociate into free heavy and light chains during overnight incubation. The heterodimers can, however, be stabilized in vitro via addition of appropriate peptide ligands, as per Townsend et al., Nature 340: 443-448 (1989); Townsend et al., Cell 62: […] (1990); Cerundolo et al., supra; Schumacher et al., Nature 350: 703-706 (1991); Elliot et al., Nature 351: 402-406 (1991); Elvin et al., Eur. J. Immunol. 21 : 2025-2031 (1991). The thus stabilized molecules can be immunoprecipitated with antibodies specific for the MHC class-I molecule.
In light of this background, the T2 cells were washed in serum free IMDM medium, and then 1.0×10^6 cells were suspended in 400 ul of the serum free IMDM medium, together with 100 ul synthetic peptide (final concentration: 0.1 mM, 1% DMSO). The mixture was incubated, overnight, at 37° C. Following incubation, the cells were washed and stained, successively, with HLA-A2 specific monoclonal antibody BB7.2, and FITC labelled, binding fragments of polyclonal goat anti-mouse IgG. Fluorescence ratio was calculated by the following formula: [formula]
This yielded the “mean fluorescence ratio” or MFR. In accordance with Nijman et al, supra, an MFR greater than 1.5 indicates binding to HLA-A2.

The mark [1] stands for this setting: overnight 37° C., BB7.2 staining, MFR greater than 1.5 indicates binding to HLA-A2.

For KIWEELSVL [Peptide M3-220.228], the “% 51CR Release” value was found to be 57% in the assay on T2 cells (effector CTL 4.2, E/T ratio 0.5); 84% in the assay with T2 cells (effector CTL 4.2, E/T ratio 1.9); 88% with T2 cells (effector CTL 4.2, E/T ratio 7.5); 91% in the assay with T2 cells (effector CTL 4.2, E/T ratio 30). Moreover, the “lysis of peptide-pulsed target cells by cytolytic T cell clone 4.2” value in the assay with T2 cells (target cells (T2, SK23) pulsed with peptide, no lysis in the absence of the peptide) is on record as “specifically lysed”.

As to “ALSRKVAEL [Peptide M3-108.116, MAGE-3 derived peptide]”, the “MFR (mean fluorescence ratio)” value in the assay with HLA-A2 molecules (in some of the experimental runs) is given as < 1.5); in the assay with HLA-A2 molecules (setting [1]) it was 2.17 (and, less than.

IMPKAGLLI [Peptide M3-195.203]: the “MFR (mean fluorescence ratio)” value in the assay with HLA-A2 molecules (setting [1]) is listed as 2.37.

Regarding TLVEVTLGEV [Peptide M3-44.53], in the assay with HLA-A2 molecules (setting [1]), the “MFR (mean fluorescence ratio)” value was determined as 3.5.

Consider “ALVETSYVKV [Peptide M3-277.286, MAGE-3 derived peptide]”, for which the “MFR (mean fluorescence ratio)” value with HLA-A2 molecules (setting [1]) is on record as 1.8 (and, less than.

These data come from patent US6353089B1, “Method for stimulating CTLs with peptides” (Ludwig Institute for Cancer Research, priority 1994, dated 2002).
